Here are results for three compounds from ChEMBL document CHEMBL1201862, “PubChem BioAssay data set” (2004).

Activity calls are given as the source filed them.

Test [1] in a line: NIH3T3 cell viability loss – ATP luminescence, mouse fibroblasts, counter-screen, dose response (AID 2010).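 Further: cells exposed to compound for about 90 hours before reading.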 Format: functional, cell-based. A general note: The purpose of a counterscreen is to sort out artefacts and off-target activity.
The target of test [2] is Serine/threonine-protein phosphatase PP1-alpha catalytic subunit (Homo sapiens, UniProt P62136). Kind of test: inhibition of protein phosphatase 1 activity – biochemical, fluorescence, dose response (AID 2394).
Test [3] concerns the target Mothers against decapentaplegic homolog 3 (Homo sapiens, UniProt P84022). Nature of the test: inhibitors of SMAD-driven TGF-beta signaling – dose response (AID 715). Format: functional.
The target in test [4] is Serine/threonine-protein phosphatase (Homo sapiens, UniProt Q9BPW0). Kind of test: inhibition of protein phosphatase 5 activity – biochemical, fluorescence, dose response (AID 2395).
Test [5] has as its target T1, Sentrin-specific protease 8 (Homo sapiens, UniProt Q96LD8).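 Further: luminescence read-out of SENP8 inhibition, dose-response confirmation following an ultra-high-throughput screen.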
T1 sequence (Q96LD8 whole entry): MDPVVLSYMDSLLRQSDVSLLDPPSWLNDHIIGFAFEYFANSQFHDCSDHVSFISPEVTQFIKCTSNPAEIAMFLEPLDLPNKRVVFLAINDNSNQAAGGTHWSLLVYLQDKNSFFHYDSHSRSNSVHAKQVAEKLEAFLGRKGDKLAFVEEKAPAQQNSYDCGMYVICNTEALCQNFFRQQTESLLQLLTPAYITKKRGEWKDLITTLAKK
Format: functional.

The target in the next test is T2, Cysteine protease ATG4B (Homo sapiens, UniProt Q9Y4P1).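 Further: Fluorescence-based dose-response confirmation assay measuring inhibition of ATG4B activity.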
T2 sequence (Q9Y4P1 whole entry): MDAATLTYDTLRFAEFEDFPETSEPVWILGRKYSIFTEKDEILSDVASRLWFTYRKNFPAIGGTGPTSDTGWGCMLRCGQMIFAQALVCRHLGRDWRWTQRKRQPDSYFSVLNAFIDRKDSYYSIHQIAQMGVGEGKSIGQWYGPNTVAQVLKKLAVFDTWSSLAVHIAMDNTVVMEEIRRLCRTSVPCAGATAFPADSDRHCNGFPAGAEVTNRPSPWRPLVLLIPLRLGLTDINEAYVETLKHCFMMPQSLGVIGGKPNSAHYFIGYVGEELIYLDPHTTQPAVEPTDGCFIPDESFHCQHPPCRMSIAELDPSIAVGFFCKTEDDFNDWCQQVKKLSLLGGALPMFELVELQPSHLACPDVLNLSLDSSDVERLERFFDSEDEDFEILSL
Format: functional.

For another test, the target named is Beta-lactamase (Salmonella choleraesuis (strain SC-B67), UniProt Q5J463).
A further test addresses Nonstructural protein 1 (Influenza A virus, UniProt Q194T2). Format: functional, Influenza A virus (A/California/07/2009(H1N1)).
The target in another test is T3, Insulin-degrading enzyme (Homo sapiens, UniProt P14735).
T3 sequence (P14735 whole entry): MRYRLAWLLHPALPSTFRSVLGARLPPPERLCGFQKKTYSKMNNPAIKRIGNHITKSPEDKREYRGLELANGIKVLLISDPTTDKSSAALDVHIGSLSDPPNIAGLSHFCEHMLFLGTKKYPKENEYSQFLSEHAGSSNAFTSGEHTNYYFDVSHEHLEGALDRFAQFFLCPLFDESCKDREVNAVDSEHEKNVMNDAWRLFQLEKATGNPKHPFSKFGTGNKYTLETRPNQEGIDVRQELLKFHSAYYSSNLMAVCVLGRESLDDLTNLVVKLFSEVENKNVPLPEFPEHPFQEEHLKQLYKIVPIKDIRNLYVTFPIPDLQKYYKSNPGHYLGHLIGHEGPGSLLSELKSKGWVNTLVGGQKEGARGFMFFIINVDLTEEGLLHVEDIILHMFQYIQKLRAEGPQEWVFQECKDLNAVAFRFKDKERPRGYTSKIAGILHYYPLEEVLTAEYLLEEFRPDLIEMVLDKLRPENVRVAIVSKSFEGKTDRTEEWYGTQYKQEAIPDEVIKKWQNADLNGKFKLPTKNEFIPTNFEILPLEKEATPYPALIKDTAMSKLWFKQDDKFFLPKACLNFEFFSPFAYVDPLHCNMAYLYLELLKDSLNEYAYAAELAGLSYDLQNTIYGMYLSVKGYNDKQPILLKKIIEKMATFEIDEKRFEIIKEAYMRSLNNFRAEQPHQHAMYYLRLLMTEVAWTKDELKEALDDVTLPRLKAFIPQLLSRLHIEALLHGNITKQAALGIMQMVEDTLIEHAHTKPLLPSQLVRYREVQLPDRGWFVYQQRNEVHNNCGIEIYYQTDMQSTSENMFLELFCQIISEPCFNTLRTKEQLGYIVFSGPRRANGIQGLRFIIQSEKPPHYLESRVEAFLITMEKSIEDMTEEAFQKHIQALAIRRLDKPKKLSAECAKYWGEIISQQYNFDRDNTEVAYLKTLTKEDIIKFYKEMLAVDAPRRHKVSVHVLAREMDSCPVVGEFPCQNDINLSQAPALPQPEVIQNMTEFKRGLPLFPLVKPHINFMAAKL
Kind of test: cellular IDE activation of Abeta substrate cleavage – fluorescence polarization, HEK cells, dose response (AID 588439). Format: functional, cell-based. A general note: In fluorescence polarisation assays a small probe gives low polarisation when free and higher when bound to something large.

The target of the next test is T4, Caspase-6 (Homo sapiens, UniProt P55212).
T4 sequence (P55212 whole entry): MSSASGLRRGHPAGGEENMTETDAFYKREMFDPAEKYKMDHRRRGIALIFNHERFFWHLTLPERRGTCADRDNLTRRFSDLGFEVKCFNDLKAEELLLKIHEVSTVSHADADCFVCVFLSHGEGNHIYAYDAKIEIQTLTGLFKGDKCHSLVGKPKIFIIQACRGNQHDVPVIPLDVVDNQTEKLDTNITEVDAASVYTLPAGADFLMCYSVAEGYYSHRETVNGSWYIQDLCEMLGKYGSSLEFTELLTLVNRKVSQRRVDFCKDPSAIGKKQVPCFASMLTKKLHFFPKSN
Nature of the test: inhibition of CASP6 peptide cleavage – biochemical, VEID-R110 fluorescence, cherry-pick, dose response (AID 720632).

Sequence of Serine/threonine-protein phosphatase PP1-alpha catalytic subunit (P62136 whole entry): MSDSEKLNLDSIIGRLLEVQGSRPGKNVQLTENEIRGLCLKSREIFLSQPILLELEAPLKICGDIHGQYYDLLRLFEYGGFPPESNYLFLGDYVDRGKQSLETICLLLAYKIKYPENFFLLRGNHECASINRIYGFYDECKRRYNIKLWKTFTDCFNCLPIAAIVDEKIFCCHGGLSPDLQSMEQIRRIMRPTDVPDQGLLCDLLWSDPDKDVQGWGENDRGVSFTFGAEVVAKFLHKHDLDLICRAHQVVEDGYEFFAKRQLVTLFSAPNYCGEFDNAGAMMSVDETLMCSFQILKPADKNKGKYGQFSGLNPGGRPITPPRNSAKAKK
Sequence of Nonstructural protein 1 (Q194T2 whole entry): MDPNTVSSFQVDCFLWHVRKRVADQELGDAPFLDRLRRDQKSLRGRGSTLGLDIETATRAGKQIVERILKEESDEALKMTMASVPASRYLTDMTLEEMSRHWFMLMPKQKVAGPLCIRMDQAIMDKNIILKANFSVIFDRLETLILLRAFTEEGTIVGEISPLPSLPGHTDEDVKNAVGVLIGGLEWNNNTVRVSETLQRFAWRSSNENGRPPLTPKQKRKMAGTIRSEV
Sequence of Serine/threonine-protein phosphatase (Q9BPW0 whole entry): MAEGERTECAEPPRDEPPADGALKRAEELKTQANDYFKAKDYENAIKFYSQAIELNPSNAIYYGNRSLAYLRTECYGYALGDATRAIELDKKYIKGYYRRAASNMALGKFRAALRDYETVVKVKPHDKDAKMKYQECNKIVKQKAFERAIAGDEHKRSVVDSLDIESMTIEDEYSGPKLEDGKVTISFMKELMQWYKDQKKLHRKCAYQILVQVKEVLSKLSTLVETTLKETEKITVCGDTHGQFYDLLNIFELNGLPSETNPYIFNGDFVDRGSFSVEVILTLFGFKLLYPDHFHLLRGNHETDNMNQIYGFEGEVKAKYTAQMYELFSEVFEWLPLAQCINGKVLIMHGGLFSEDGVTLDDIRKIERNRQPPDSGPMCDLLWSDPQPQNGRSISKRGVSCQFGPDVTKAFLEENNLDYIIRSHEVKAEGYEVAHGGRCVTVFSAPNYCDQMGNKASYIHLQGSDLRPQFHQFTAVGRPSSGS
Sequence of Beta-lactamase (Q5J463 whole entry): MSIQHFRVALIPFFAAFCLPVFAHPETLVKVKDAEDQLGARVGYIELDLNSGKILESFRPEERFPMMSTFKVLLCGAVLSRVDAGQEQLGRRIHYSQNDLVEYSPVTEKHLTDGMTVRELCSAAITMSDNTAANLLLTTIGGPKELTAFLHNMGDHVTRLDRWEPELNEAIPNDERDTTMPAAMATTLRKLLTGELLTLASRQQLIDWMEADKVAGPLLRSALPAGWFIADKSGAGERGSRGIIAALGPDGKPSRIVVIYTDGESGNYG
Sequence of Mothers against decapentaplegic homolog 3 (P84022 whole entry): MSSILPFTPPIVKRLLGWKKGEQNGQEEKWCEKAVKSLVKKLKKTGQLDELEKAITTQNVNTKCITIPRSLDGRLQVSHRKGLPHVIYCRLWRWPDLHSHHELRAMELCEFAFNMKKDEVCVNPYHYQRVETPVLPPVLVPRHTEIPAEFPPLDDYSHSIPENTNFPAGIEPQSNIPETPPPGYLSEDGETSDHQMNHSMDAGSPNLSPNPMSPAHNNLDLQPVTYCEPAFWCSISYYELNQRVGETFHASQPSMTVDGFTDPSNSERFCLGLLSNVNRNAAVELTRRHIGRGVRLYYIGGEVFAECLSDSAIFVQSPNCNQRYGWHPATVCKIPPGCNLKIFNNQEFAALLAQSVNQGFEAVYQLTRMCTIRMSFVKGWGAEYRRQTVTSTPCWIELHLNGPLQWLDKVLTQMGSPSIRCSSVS

A word on the EC50: it is the concentration giving half of the maximal effect. `CCCCCCCCCCOC(=O)C[n+]1c(COc2ccccc2C)n(C)c2ccccc21`: the EC50 in test [1] was > 60 µM (not active).

By IC50 is commonly meant the concentration needed to halve the response being measured. For the compound `Oc1nc(Nc2ccccc2)cc2ccccc12`, the half-inhibitory concentration (IC50) was > 67 µM (not active) in test [2]; 19.6 µM (active) in test [3]; 31.6 µM (not active) in test [4]; 0.899 µM (active) in test [5]; 9.22 µM (active) on Cysteine protease ATG4B.

As a reminder, the AC50 is the midpoint of the concentration-response curve, whichever way the signal moves. For `COc1cc(OC)c(-c2c3cc(O)c(=O)cc-3oc3cc(O)c(O)cc23)cc1OC`, the half-inhibitory concentration (IC50) at Beta-lactamase was 2.13 µM (active); on Nonstructural protein 1, 41.7 µM (active). Also, on Insulin-degrading enzyme, the EC50 was > 54.7 µM (inactive). On Caspase-6, the AC50 was 0.0367 µM (active).
